Measurements published in patent US9458153B2, “Dihydroquinolizinones for the treatment and prophylaxis of hepatitis B virus infection” (Hoffmann-La Roche Inc., priority 2014, dated 2016).

Tested on: HBsAg
Experiment: HBsAg assay (chemiluminescence immunoassay of secreted HBsAg in HepG2.2.15 culture supernatant)
Type: cell-based, HBV
Conditions: HepG2.2.15 cells, CLIA kit
How it was run: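 HepG2.2.15 cells, which constitutively express HBV, were seeded in duplicate and treated with three-fold serial compound dilutions at 1% DMSO final. Secreted HBsAg in culture supernatant was measured semi-quantitatively by chemiluminescence immunoassay. IC50 was extrapolated from dose-response curves.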

[1] = Hepatitis B virus, HepG2.2.15, HBsAg secretion reduced by 50% vs no drug control
[2] = HBsAg secretion reduced by 50% vs no drug control

| Compound | IC50 [1] [nM] | IC50 [2] [nM] |
| --- | --- | --- |
| C[C@@H]1Cc2cc(Br)ccc2-c2cc(=O)c(C(=O)O)cn21 [Example 61, (+)-9-bromo-6-methyl-2-oxo-6,7-dihydrobenzo[a]quinolizine-3-carboxylic acid] | 6020 |  |
| CC1Cc2cc(N3CCN(C(=O)OC(C)(C)C)CC3)ccc2-c2cc(=O)c(C(=O)O)cn21 (stereo not shown) [Example 62, 9-(4-tert-butoxycarbonylpiperazin-1-yl)-6-methyl-2-oxo-6,7-dihydrobenzo[a]quinolizine-3-carboxylic acid] | 990 |  |
| CC1Cc2cc(N(C)Cc3ccccc3)ccc2-c2cc(=O)c(C(=O)O)cn21 (stereo not shown) [Example 63, 9-[benzyl(methyl)amino]-6-methyl-2-oxo-6,7-dihydrobenzo[a]quinolizine-3-carboxylic acid] | 7180 |  |
| CNc1cccc2c1-c1cc(=O)c(C(=O)O)cn1C(C)C2 (stereo not shown) [Example 64, 6-methyl-11-(methylamino)-2-oxo-6,7-dihydrobenzo[a]quinolizine-3-carboxylic acid] | 24900 |  |
| COc1cc2c(cc1Cl)-c1cc(=O)c(C(=O)O)cn1C(C)C2 (stereo not shown) [Example 65, 10-chloro-9-methoxy-6-methyl-2-oxo-6,7-dihydrobenzo[a]quinolizine-3-carboxylic acid] | 320 |  |
| COc1cc2c(cc1OC)-c1cc(=O)c(C(=O)O)cn1C(C)C2 (stereo not shown) [Example 66, 9,10-dimethoxy-6-methyl-2-oxo-6,7-dihydrobenzo[a]quinolizine-3-carboxylic acid] |  | 430 |
| COc1cc2c(cc1OC)C(C)Cn1cc(C(=O)O)c(=O)cc1-2 (stereo not shown) [Example 69, 9,10-dimethoxy-7-methyl-2-oxo-6,7-dihydrobenzo[a]quinolizine-3-carboxylic acid] | 1300 |  |
| CCC1Cc2cc(OC)c(OC)cc2-c2cc(=O)c(C(=O)O)cn21 (stereo not shown) [Example 70, 6-ethyl-9,10-dimethoxy-2-oxo-6,7-dihydrobenzo[a]quinolizine-3-carboxylic acid] | 70 |  |
| CC[C@@H]1Cc2cc(OC)c(OC)cc2-c2cc(=O)c(C(=O)O)cn21 [Example 71, (6R)-(+)-6-ethyl-9,10-dimethoxy-2-oxo-6,7-dihydrobenzo[a]quinolizine-3-carboxylic acid] | 37 |  |
| CC[C@H]1Cc2cc(OC)c(OC)cc2-c2cc(=O)c(C(=O)O)cn21 [Example 72, (6S)-(−)-6-ethyl-9,10-dimethoxy-2-oxo-6,7-dihydrobenzo[a]quinolizine-3-carboxylic acid] | 12000 |  |
| COc1cc2c(cc1C)-c1cc(=O)c(C(=O)O)cn1C(C)C2 (stereo not shown) [Example 73, 9-methoxy-6,10-dimethyl-2-oxo-6,7-dihydrobenzo[a]quinolizine-3-carboxylic acid] | 140 |  |
| CCOc1cc2c(cc1OCC)-c1cc(=O)c(C(=O)O)cn1C(C)C2 (stereo not shown) [Example 74, 9,10-diethoxy-6-methyl-2-oxo-6,7-dihydrobenzo[a]quinolizine-3-carboxylic acid] | 140 |  |
| CCOc1cc2c(cc1O)-c1cc(=O)c(C(=O)O)cn1C(C)C2 (stereo not shown) [Example 75, 9-ethoxy-6-methyl-10-hydroxy-2-oxo-6,7-dihydrobenzo[a]quinolizine-3-carboxylic acid] | 1110 |  |
| CCCOc1cc2c(cc1OCCC)-c1cc(=O)c(C(=O)O)cn1CC2 [Example 77, 2-oxo-9,10-dipropoxy-6,7-dihydrobenzo[a]quinolizine-3-carboxylic acid] | 830 |  |
| CCCc1cc2c(cc1OC)-c1cc(=O)c(C(=O)O)cn1C(CC)C2 (stereo not shown) [Example 81, 6-ethyl-10-methoxy-2-oxo-9-propyl-6,7-dihydrobenzo[a]quinolizine-3-carboxylic acid] | 330 |  |
| COc1ccc2c(c1Cl)CC(C)n1cc(C(=O)O)c(=O)cc1-2 (stereo not shown) [Example 82, 8-chloro-9-methoxy-6-methyl-2-oxo-6,7-dihydrobenzo[a]quinolizine-3-carboxylic acid] | 5270 |  |
| COc1cc2c(c(Cl)c1OC)CC(C)n1cc(C(=O)O)c(=O)cc1-2 (stereo not shown) [Example 83, 8-chloro-9,10-dimethoxy-6-methyl-2-oxo-6,7-dihydrobenzo[a]quinolizine-3-carboxylic acid] | 5600 |  |
| CCCOc1cc2c(cc1OC)CC(C)n1cc(C(=O)O)c(=O)cc1-2 (stereo not shown) [Example 87, 9-methoxy-6-methyl-2-oxo-10-propoxy-6,7-dihydrobenzo[a]quinolizine-3-carboxylic acid] | 1550 |  |
| CCc1cc2c(cc1OC)CC(CC)n1cc(C(=O)O)c(=O)cc1-2 (stereo not shown) [Example 88, 6,10-diethyl-9-methoxy-2-oxo-6,7-dihydrobenzo[a]quinolizine-3-carboxylic acid] | 20 |  |
| CCC1Cc2cc(OC)c(C3CC3)cc2-c2cc(=O)c(C(=O)O)cn21 (stereo not shown) [Example 89, 10-cyclopropyl-6-ethyl-9-methoxy-2-oxo-6,7-dihydrobenzo[a]quinolizine-3-carboxylic acid] |  | 8 |

| Compound | IC50 [1] [nM] | IC50 [2] [nM] |
| --- | --- | --- |
| CCC1Cc2cc(Br)c(OC)cc2-c2cc(=O)c(C(=O)O)cn21 (stereo not shown) [Example 92, 9-bromo-6-ethyl-10-methoxy-2-oxo-6,7-dihydrobenzo[a]quinolizine-3-carboxylic acid] | 230 |  |
| CCC1Cc2cc(C#N)c(OC)cc2-c2cc(=O)c(C(=O)O)cn21 (stereo not shown) [Example 93, 9-cyano-6-ethyl-10-methoxy-2-oxo-6,7-dihydrobenzo[a]quinolizine-3-carboxylic acid] | 190 |  |
| CCOc1ccc(Br)c2c1-c1cc(=O)c(C(=O)O)cn1C(CC)C2 (stereo not shown) [Example 94, 8-bromo-11-ethoxy-6-ethyl-2-oxo-6,7-dihydrobenzo[a]quinolizine-3-carboxylic acid] | 410 |  |
| CCOc1ccc(C#N)c2c1-c1cc(=O)c(C(=O)O)cn1C(CC)C2 (stereo not shown) [Example 95, 8-cyano-11-ethoxy-6-ethyl-2-oxo-6,7-dihydrobenzo[a]quinolizine-3-carboxylic acid] | 7830 |  |
| CCCC1Cc2cc(OC)c(OC)cc2-c2cc(=O)c(C(=O)O)cn21 (stereo not shown) [Example 96, 9,10-dimethoxy-2-oxo-6-propyl-6,7-dihydrobenzo[a]quinolizine-3-carboxylic acid] | 49 |  |
| COc1cc2c(cc1OC)-c1cc(=O)c(C(=O)O)cn1C(C1CC1)C2 (stereo not shown) [Example 97, 6-cyclopropyl-9,10-dimethoxy-2-oxo-6,7-dihydrobenzo[a]quinolizine-3-carboxylic acid] | 70 |  |
| COc1cc2c(cc1OC)-c1cc(=O)c(C(=O)O)cn1C(C(C)C)C2 (stereo not shown) [Example 98, 6-isopropyl-9,10-dimethoxy-2-oxo-6,7-dihydrobenzo[a]quinolizine-3-carboxylic acid] |  | 16 |
| COc1cc2c(cc1OC)-c1cc(=O)c(C(=O)O)cn1C(CC(C)C)C2 (stereo not shown) [Example 101, 6-isobutyl-9,10-dimethoxy-2-oxo-6,7-dihydrobenzo[a]quinolizine-3-carboxylic acid] |  | 45 |
| COCCOc1cc2c(cc1Cl)-c1cc(=O)c(C(=O)O)cn1C(CC(C)C)C2 (stereo not shown) [Example 104, 10-chloro-6-isobutyl-9-(2-methoxyethoxy)-2-oxo-6,7-dihydrobenzo[a]quinolizine-3-carboxylic acid] |  | 18 |
| COCCOc1cc2c(cc1Cl)-c1cc(=O)c(C(=O)O)cn1C(C(C)C)C2 (stereo not shown) [Example 107, 10-chloro-6-isopropyl-9-(2-methoxyethoxy)-2-oxo-6,7-dihydrobenzo[a]quinolizine-3-carboxylic acid] |  | 12 |
| COCCOc1cc2c(cc1F)-c1cc(=O)c(C(=O)O)cn1C(C(C)C)C2 (stereo not shown) [Example 110, 10-fluoro-6-isopropyl-9-(2-methoxyethoxy)-2-oxo-6,7-dihydrobenzo[a]quinolizine-3-carboxylic acid] | 52 |  |
| COCCOc1cc(Cl)c2c(c1)CC(C(C)C)n1cc(C(=O)O)c(=O)cc1-2 (stereo not shown) [Example 111, 11-chloro-6-isopropyl-9-(2-methoxyethoxy)-2-oxo-6,7-dihydrobenzo[a]quinolizine-3-carboxylic acid] | 40 |  |
| CCC1Cc2cc(C)c(C)cc2-c2cc(=O)c(C(=O)O)cn21 (stereo not shown) [Example 112, 6-ethyl-9,10-dimethyl-2-oxo-6,7-dihydrobenzo[a]quinolizine-3-carboxylic acid] | 140 |  |
| CCC1Cc2c(ccc(C)c2C)-c2cc(=O)c(C(=O)O)cn21 (stereo not shown) [Example 113, 6-ethyl-8,9-dimethyl-2-oxo-6,7-dihydrobenzo[a]quinolizine-3-carboxylic acid] | 640 |  |
| COc1cc2c(cc1OC)-c1cc(=O)c(C(=O)O)cn1C(C(F)(F)F)C2 (stereo not shown) [Example 114, 9,10-dimethoxy-2-oxo-6-(trifluoromethyl)-6,7-dihydrobenzo[a]quinolizine-3-carboxylic acid] | 150 |  |
| CCC1Cc2cc(OCc3ccccc3)c(C)cc2-c2cc(=O)c(C(=O)O)cn21 (stereo not shown) [Example 115, 9-benzyloxy-6-ethyl-10-methyl-2-oxo-6,7-dihydrobenzo[a]quinolizine-3-carboxylic acid] |  | 29 |
| COCCCOc1cc2c(cc1Cl)-c1cc(=O)c(C(=O)O)cn1C(C(C)C)C2 (stereo not shown) [Example 120, 10-chloro-6-isopropyl-9-(3-methoxypropoxy)-2-oxo-6,7-dihydrobenzo[a]quinolizine-3-carboxylic acid] |  | 2 |
| COc1cc2c(cc1OCC(F)(F)F)CC(C(C)C)n1cc(C(=O)O)c(=O)cc1-2 (stereo not shown) [Example 126, 6-isopropyl-10-methoxy-2-oxo-9-(2,2,2-trifluoroethoxy)-6,7-dihydrobenzo[a]quinolizine-3-carboxylic acid] |  | 8 |
| COCCCOc1cc2c(cc1OC)-c1cc(=O)c(C(=O)O)cn1C(C(C)(C)C)C2 (stereo not shown) [Example 131, 6-tert-butyl-10-methoxy-9-(3-methoxypropoxy)-2-oxo-6,7-dihydrobenzo[a]quinolizine-3-carboxylic acid] |  | 1 |
| COCCOc1cc2c(cc1OC)-c1cc(=O)c(C(=O)O)cn1C(C1(C)CC1)C2 (stereo not shown) [Example 134, 10-methoxy-9-(2-methoxyethoxy)-6-(1-methylcyclopropyl)-2-oxo-6,7-dihydrobenzo[a]quinolizine-3-carboxylic acid] |  | 7 |
